This note sets out measurements from the METLIN SMRT retention time set (Domingo-Almenara et al. 2019).

The nature of the series: gradient 5% acetonitrile 3 min, to 50% in 2 min, to 85% in 15 min, held 3 min, 100 µL/min. As to conditions: column: Zorbax Extend-C18 2.1 x 50 mm; eluents: water / acetonitrile, 0.1% formic acid. In outline:
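Retention time was recorded from adduct peaks, which were picked computationally and each inspected manually. Pure standards ran in mixtures of ~100 molecules on HPLC coupled to a quadrupole time-of-flight mass spectrometer, in positive and negative ionization mode, through a Zorbax Extend-C18 column (2.1 × 50 mm, 1.8 μm) at 100 μL/min. Eluents were water and acetonitrile, each with 0.1% formic acid.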
As for `O=C(CN1CCN(Cc2ccc(F)cc2)C(=O)C1=O)N1CCN(c2ccc(F)cc2)CC1`, the RP-LC retention time stood at 744 s.

`CC(NCC(O)COc1c(F)cc(Br)cc1F)c1ccccc1` (stereo not given) came in with an RP-LC retention time of 618 s.

In turn, `O=C(NCc1ccccc1)c1cc(N2CCCC2)n2nccc2n1` yielded an RP-LC retention time of 951 s.

In turn, `CCCN(Cc1ccc(OC)cc1)Cc1cc(=O)n2cccc(C)c2n1` had an RP-LC retention time of 644 s.

Turning to `Cc1ccc(-c2nc3ncccn3c2Nc2c(C)cccc2C)cc1`, the RP-LC retention time was 820 s.

In turn, `O=C(c1ccoc1)N1CCN(C(=O)c2nnn3c2COC(c2ccc(Cl)cc2)C3)CC1` (stereo not given) gave an RP-LC retention time of 838 s.

Regarding `CCOC(=O)c1c(C)[nH]c(C(=O)N2CCC(C(C)C(=O)NCc3ccc(C)cc3)CC2)c1C` (stereo not given), the RP-LC retention time turned out to be 846 s.

The molecule `CC(C)n1cnc(S(=O)(=O)N2CCCC(C(=O)NCc3ccc(N(C)C)cc3)C2)c1` (stereo not given) showed an RP-LC retention time of 597 s.

As for `O=C(Nc1ccccc1-c1nc2ccccc2s1)c1c(F)cccc1F`, the RP-LC retention time was 1270 s.

In turn, `CN1C(=O)c2cccnc2Sc2cc(NC(=O)c3ccccc3Br)ccc21` gave an RP-LC retention time of 785 s.

Molecule `Cc1ccsc1C(=O)NCCC1CCN(C(=O)Nc2cc(F)cc(F)c2)CC1` registered an RP-LC retention time of 915 s.

For the molecule `CN(C)c1ccc(-c2nc3ccccc3s2)cc1`, the RP-LC retention time is 1130 s.

As to `COc1ccc(-c2noc(Cc3nnc(-c4cc(F)cc(F)c4)o3)n2)cc1OC`, the RP-LC retention time was determined as 924 s.

`CCN1C=C(C(=O)OCc2ccc(Cl)cc2)C(C)=NS1(=O)=O` yielded an RP-LC retention time of 1060 s.

`CN(C)CCNC(=O)c1cccc(Nc2c(-c3ccc(Cl)cc3)nc3cnccn23)c1` had an RP-LC retention time of 611 s.

`CCNC(=O)C1CCCN(c2nc3ncn(CC(=O)Nc4ccc(OCC)cc4)c(=O)c3s2)C1` (stereo not given) came in with an RP-LC retention time of 688 s.

In the case of `O=C(c1cnccn1)N1CCCCC1c1nncn1Cc1ccccc1` (stereo not given), the RP-LC retention time was found to be 637 s.

For `Cc1ccc(-n2ccc(=O)c(-c3nc(-c4ccc(F)c(Br)c4)no3)n2)cc1`, the RP-LC retention time was 1080 s.

Consider `CCNc1cc(N2CCC(CCC(=O)NCc3ccccc3Cl)CC2)ncn1`, for which the RP-LC retention time turned out to be 585 s.

For `O=C(NCCC1=CCCCC1)C(=O)NCC1(CO)CC1`, the RP-LC retention time turned out to be 713 s.

Regarding `CCc1ccc2nc(C)cc(C(N)=O)c2c1`, the RP-LC retention time came to 561 s.

Regarding `Cc1ccc(N2CCC(NC(=O)c3ccc(C#N)cc3)C2=O)cc1C` (stereo not given), the RP-LC retention time stood at 854 s.

Regarding `Cc1nc(-c2cccc(-c3noc(COc4ccc(F)cc4)n3)c2)cs1`, the RP-LC retention time amounted to 1200 s.

`Cc1ccc(NC(=O)N2CCCC2c2nc(-c3ccccc3C)no2)cc1` (stereo not given): the RP-LC retention time is 598 s.

`Cc1nc(-c2nnc(NC(=O)c3cnccn3)o2)cs1` showed an RP-LC retention time of 567 s.

Take `O=C(NC1CCc2ccccc21)C1CCN(c2ncccc2-c2nc(-c3cccc(F)c3)no2)CC1` (stereo not given): the RP-LC retention time was determined as 1160 s.

For `Cc1cc(CN2CCC(CNC(=O)C(=O)Nc3cccnc3)CC2)c(C)o1`, the RP-LC retention time is 681 s.

Molecule `Cc1ncc2c(n1)CCN(C(=O)c1ccc(Br)cc1)C2` came in with an RP-LC retention time of 675 s.

In the case of `CC(C)n1cnc2cc(CNC(=O)c3ccnn3C)ccc21`, the RP-LC retention time was found to be 582 s.

For `Cc1ccc(-n2c(N3CCCC(C(=O)NCCCOC(C)C)C3)nc3ccsc3c2=O)cc1` (stereo not given), the RP-LC retention time amounted to 838 s.

Take `CCCc1ccc(S(=O)(=O)N2CCC(OCc3noc(C4CCCO4)n3)CC2)cc1` (stereo not given): the RP-LC retention time came to 987 s.

`COc1cc(/C=C2\SC(=O)N(CC(=O)Nc3nccs3)C2=O)cc(OC)c1OC` returned an RP-LC retention time of 777 s.

For `COCCCNC(=O)C1CCN(c2cnn(Cc3ccccc3)c(=O)c2)CC1`, the RP-LC retention time came to 651 s.

Turning to `O=S(=O)(c1ccc2nc(N3CCN(c4ccccc4)CC3)ccc2c1)N1CCCC1`, the RP-LC retention time stood at 921 s.

As for `COc1cccc(-c2ccc(=O)n(CCc3nc(-c4ccc(C)cc4)no3)n2)c1`, the RP-LC retention time was 999 s.

In the case of `COc1ccc(OC)c(NC(=O)N2CCN(c3ccc(=O)n(-c4ccc(C)cc4)n3)CC2)c1`, the RP-LC retention time was 835 s.

`CC(=O)Nc1ccc(C2(C(=O)O)CCC2)cc1`: the RP-LC retention time is 637 s.

In turn, `O=C(NCc1ccncc1)C1=C2CCCN2c2ccc(F)cc2S1(=O)=O` yielded an RP-LC retention time of 583 s.

With `Cc1nnsc1C(=O)Nc1nnc(SCC(=O)Nc2ccc(F)c(Cl)c2)s1`, the RP-LC retention time came out at 813 s.

Molecule `COc1ccc(C2(C(=O)N3CCC(c4nc(CCOCc5ccccc5)no4)C3)CC2)cc1` (stereo not given) returned an RP-LC retention time of 958 s.

`CCOC(=O)C(C(=O)NCCCN1CCOCC1)C1CCCCC1` (stereo not given) showed an RP-LC retention time of 624 s.

On to `CN1C(=O)c2cccnc2Sc2cc(NC(=O)c3c(F)cccc3Cl)ccc21`, for which the RP-LC retention time was 783 s.

On to `CC(NC(=O)c1cn2c(n1)CCCC2)c1ccc(F)cc1` (stereo not given), for which the RP-LC retention time came out at 612 s.

`Cc1c(C(=O)NC2CC2)cc(-c2ccccc2)n1C` showed an RP-LC retention time of 605 s.

Take `N#Cc1cccc(C(=O)Nc2cnn(-c3ncc(N4CCCCC4)cn3)c2)c1`: the RP-LC retention time was 847 s.

Take `CCc1ccccc1NC(=O)Cn1c(NCCCc2ccccc2)nc(C)cc1=O`: the RP-LC retention time came out at 857 s.

Take `Cc1oc(-c2[nH]ncc2C(=O)N(C)C)cc1S(=O)(=O)Nc1cccc(F)c1`: the RP-LC retention time is 668 s.

`CCCN1CCn2cc(S(=O)(=O)Nc3ccccc3OC)cc2C1=O` returned an RP-LC retention time of 733 s.

As to `O=C(NCCc1csc(-c2cccs2)n1)C1CCN(S(=O)(=O)c2ccccc2F)CC1`, the RP-LC retention time came out at 872 s.

In the case of `COc1ccc(C)cc1NC(=O)C1CCN(C(=O)C(C)(C)C)CC1`, the RP-LC retention time was determined as 784 s.

In turn, `COc1ccc(OC)c(NC(=O)Cn2ncc3c(c2=O)N(C2CC2)C(=O)CS3)c1` had an RP-LC retention time of 724 s.

`CCc1nc2cc(N3CCCC(C(=O)O)C3)cnc2nc1CC` (stereo not given): the RP-LC retention time was 693 s.

Turning to `COc1ccc(NC(=O)Cn2c(C)cc(-c3nnc(-c4ccco4)o3)c2C)cc1Cl`, the RP-LC retention time is 903 s.

`CCN1C(=O)C(C)(C(=O)Nc2cccc(Cl)c2)Oc2cccnc21` (stereo not given): the RP-LC retention time turned out to be 982 s.

Turning to `CC(C)NC(=O)N1CC(Oc2cccc(-c3nc(-c4ccccc4)no3)c2)C1`, the RP-LC retention time is 1010 s.

In turn, `O=C(O)CCC1(c2ccccc2)NC(=O)NC1=O` (stereo not given) came in with an RP-LC retention time of 651 s.

In turn, `COc1cccc(-c2ccc(=O)n(Cc3nc(-c4ccccc4)no3)n2)c1` came in with an RP-LC retention time of 968 s.

`Cc1ccc(F)c(NC(=O)C2CC(=O)N(c3ccc4c(c3)CCN4C(=O)C3CC3)C2)c1` (stereo not given): the RP-LC retention time came to 799 s.

For `CCCNc1cc(N2CCC(CCC(=O)NCc3cc(F)ccc3F)CC2)ncn1`, the RP-LC retention time came to 684 s.

The molecule `CCOC(=O)c1c(C)c(C(=O)CN(CC2CCCO2)C(=O)c2ccc(F)cc2)c(C)n1CC` (stereo not given) came in with an RP-LC retention time of 973 s.
